Measured values reported in ChEMBL document CHEMBL4739717, “Methods of treating cartilage disorders through inhibition of clk and dyrk” (2020).

Legend:
[1] = target: Dual specificity protein kinase CLK3 (Homo sapiens, UniProt P49761); assay: Inhibition of recombinant CLK3 (unknown origin) using Ser/Thr 18 peptide as substrate incubated for 1 hr in presence of ATP by FRET assay
[2] = Effect on Wnt signaling pathway in human SW480 cells harbouring TCF/LEF luciferase reporter gene and SP5-Luc reporter gene incubated for 36 to 48 hrs by luminescence assay; assay type: cell-based
[3] = Induction of chondrogenesis in human MSC assessed as incubated for 6 days by rhodamine B and Nile red staining based imaging analysis; assay type: functional; settings: bmmsc
[4] = target: Dual specificity tyrosine-phosphorylation-regulated kinase 1A (Homo sapiens, UniProt Q13627); assay: Inhibition of recombinant DYRK1A (unknown origin) using Ser/Thr 18 peptide as substrate incubated for 1 hr in presence of ATP by FRET assay
[5] = Induction of chondrogenesis in human MSC assessed as maximum activity at 300 nM incubated for 6 days by rhodamine B and Nile red staining based imaging analysis relative to control; assay type: functional; settings: BMMSC, 144 h, time 6 day
[6] = Inhibition of IL1-beta induced MMP3 expression levels in human chondrocytes assessed as MMP3 levels incubated for 2hrs followed by IL1-beta stimulation and measured after overnight incubation by LANCE assay; assay type: functional, cell-based; settings: Chondrocyte

Sequence of Dual specificity protein kinase CLK3 (P49761 whole entry): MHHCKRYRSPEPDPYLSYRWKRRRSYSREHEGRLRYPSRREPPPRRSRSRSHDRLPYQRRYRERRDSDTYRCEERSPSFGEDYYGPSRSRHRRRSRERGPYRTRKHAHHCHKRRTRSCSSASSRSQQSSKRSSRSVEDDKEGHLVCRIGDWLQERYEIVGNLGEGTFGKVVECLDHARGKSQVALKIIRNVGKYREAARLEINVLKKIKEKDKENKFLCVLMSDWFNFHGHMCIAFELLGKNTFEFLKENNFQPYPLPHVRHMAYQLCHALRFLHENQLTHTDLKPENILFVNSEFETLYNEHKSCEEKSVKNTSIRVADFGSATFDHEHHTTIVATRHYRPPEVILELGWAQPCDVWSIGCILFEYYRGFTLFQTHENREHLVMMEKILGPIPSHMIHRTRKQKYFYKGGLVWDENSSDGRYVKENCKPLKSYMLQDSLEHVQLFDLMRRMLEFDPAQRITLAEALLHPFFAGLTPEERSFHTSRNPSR

| EC50 [1] [µM] | EC50 [2] [nM] | EC50 [3] [nM] | EC50 [4] [nM] | EC50 [6] [nM] | Structure (SMILES) | Emax at 0.3 µM [5] [%] |
| --- | --- | --- | --- | --- | --- | --- |
| > 10 | > 10000 | – | – | – | O=C(Nc1cc2cc(-c3cnco3)cnc2cn1)[C@H]1CC[C@H](CO)CC1 | – |
| – | 224 | 10 | 5 | – | Nc1cncc(-c2cc3c(-c4cc5c(-c6ccccc6F)nccc5[nH]4)n[nH]c3cn2)c1 | 117 |
| – | > 10000 | 30 | 3 | – | CCC(=O)Nc1cncc(-c2cc3c(-c4cc5c(N6CCN(C)CC6)nccc5[nH]4)n[nH]c3cn2)c1 | 70 |
| – | 4970 | 100 | 35 | – | CN1CCN(c2cccc3[nH]c(-c4n[nH]c5ccc(-c6cncc(CN7CCCCC7)c6)cc45)cc23)CC1 | 198 |
| – | 4160 | 10 | 15 | – | CN1CCN(c2nccc3[nH]c(-c4n[nH]c5ccc(-c6cncc(CN7CCCCC7)c6)nc45)cc23)CC1 | 70.8 |
| – | 191 | 300 | 21 | – | Cc1ccncc1-c1ccc2[nH]nc(-c3cc4ccncc4[nH]3)c2c1 | 161 |
| – | 146 | 100 | 2 | – | Nc1cncc(-c2ccc3[nH]nc(-c4cc5c(-c6cccnc6)nccc5[nH]4)c3c2)c1 | 178 |
| – | > 10000 | 300 | 51 | – | CN1CCN(c2ccnc3[nH]c(-c4n[nH]c5cnc(-c6cncc(CNCC7CCCC7)c6)cc45)cc23)CC1 | 150 |
| – | 30.2 | 100 | 16 | – | Fc1cccc(-c2ccnc3[nH]c(-c4n[nH]c5ncc(-c6cn[nH]c6)cc45)nc23)c1 | 110 |
| > 10 | 1270 | – | 24 | 0.2 | O=C(Nc1cccnc1)c1n[nH]cc1C#Cc1cncc(OC2CCNCC2)c1 | – |
| – | > 10000 | 30 | 30 | – | COc1cccc(-c2cncc3[nH]c(-c4n[nH]c5ccc(-c6cccnc6)nc45)nc23)c1 | 59.2 |
| – | 35.4 | 300 | 11 | – | O=C(Nc1cncc(-c2cnc3[nH]nc(-c4nc5c(-c6cccnc6)cncc5[nH]4)c3c2)c1)C1CCC1 | 130 |
| – | 21 | 100 | 3 | – | CC(C)(C)CC(=O)Nc1cncc(-c2ccc3[nH]nc(-c4nc5ccncc5[nH]4)c3c2)c1 | 152 |
| – | > 10000 | 900 | 16 | – | CCC(=O)Nc1cncc(-c2ccc3[nH]nc(-c4nc5c(N6CCCCC6)cncc5[nH]4)c3n2)c1 | 69.8 |
| – | 5.7 | 100 | 73 | – | O=C(Nc1cncc(-c2ccc3[nH]nc(-c4nc5c(-c6ccc(F)cc6)cncc5[nH]4)c3c2)c1)C1CCC1 | 203 |
| – | 197 | 30 | 31 | – | Nc1cncc(-c2cnc3[nH]nc(-c4cc5c(-c6ccccc6F)nccc5[nH]4)c3c2)c1 | 86 |
| – | > 10000 | 10 | 8 | – | Nc1cncc(-c2ccc3[nH]nc(-c4nc5c(-c6ccccc6F)nccc5[nH]4)c3n2)c1 | 108 |
| – | 3550 | 300 | 43 | – | c1csc(-c2ccnc3[nH]c(-c4n[nH]c5ccc(-c6cncc(OC7CCNCC7)c6)nc45)cc23)c1 | 51.4 |
| – | 580 | 10 | 3 | – | O=C(Nc1cncc(-c2cc3c(-c4cc5cnccc5[nH]4)n[nH]c3cn2)c1)c1ccccc1 | 152 |
| – | 15 | 300 | 1 | – | COc1ccc(NC(=O)c2n[nH]c3ccc(-c4cncc(CN5CCCCC5)c4)cc23)cn1 | 138 |
| – | 11 | 300 | 11 | – | CCC(=O)Nc1cncc(-c2cnc3[nH]nc(-c4nc5c(-c6ccc(F)cc6)cncc5[nH]4)c3c2)c1 | 143 |
| 0.03 | – | – | – | 1010 | CN(C)CCOc1cc(C(=O)Nc2cc3cc(-c4cnn(C)c4)ccc3cn2)ccn1 | – |
| – | 1510 | 300 | 28 | – | c1cncc(-c2ccc3[nH]nc(-c4nc5c(-c6cccnc6)ccnc5[nH]4)c3n2)c1 | 94.6 |
| – | 2220 | – | 10 | 280 | O=C(Nc1c[nH]nc1C(=O)Nc1ccc(N2CCC(F)(F)C2)nc1)c1cncc(OC2CCNCC2)c1 | 75.2 |
| – | 35 | 30 | 76 | – | c1cncc(-c2ccc3[nH]nc(-c4nc5c(-c6cccnc6)cncc5[nH]4)c3c2)c1 | 159 |

| EC50 [1] [µM] | EC50 [2] [nM] | EC50 [3] [nM] | EC50 [4] [nM] | EC50 [6] [nM] | Structure (SMILES) | Emax at 0.3 µM [5] [%] |
| --- | --- | --- | --- | --- | --- | --- |
| – | > 10000 | 10 | 7 | – | Nc1cncc(-c2ccc3[nH]nc(-c4nc5c(-c6ccccc6F)cncc5[nH]4)c3n2)c1 | 98.2 |
| – | 30.5 | 10 | 63 | – | Fc1ccccc1-c1nccc2[nH]c(-c3n[nH]c4cnc(-c5cn[nH]c5)cc34)cc12 | 89.2 |
| – | 82.2 | 100 | 15 | – | CN(C)Cc1cncc(-c2cc3c(-c4nc5c(-c6cccc(F)c6)cccc5[nH]4)n[nH]c3cn2)c1 | 311 |
| – | 7 | 30 | – | – | CC1CCN(Cc2cncc(-c3ccc4[nH]nc(C(=O)Nc5cccnc5)c4c3)c2)CC1 | 94.4 |
| – | 4 | 30 | – | – | CN1CCN(c2ccc(NC(=O)c3n[nH]c4ccc(-c5cncc(CN6CCC(F)(F)C6)c5)cc34)cn2)CC1 | 80.9 |
| > 10 | > 10000 | – | – | 3000 | CC(F)(F)CN1CCC(C(=O)Nc2cc3cc(-c4cnco4)cnc3cn2)CC1 | – |
| – | > 10000 | 10 | 30 | – | CC(C)C(=O)Nc1cncc(-c2ccc3[nH]nc(-c4nc5c(-c6ccccc6F)cncc5[nH]4)c3n2)c1 | 181 |
| > 10 | > 10000 | – | 19 | – | Nc1cncc(-c2cnc3[nH]nc(-c4cc5c(-c6ccncc6)ccnc5[nH]4)c3c2)c1 | – |
| – | 21 | 300 | 5 | – | CN(C)CCNc1cc(F)cc(-c2cncc3[nH]c(-c4n[nH]c5ncc(-c6cccnc6)cc45)nc23)c1 | 129 |
| – | 12.3 | 300 | 50 | – | Nc1cncc(-c2cnc3[nH]nc(-c4nc5c(-c6ccccc6F)ccnc5[nH]4)c3c2)c1 | 59.9 |
| – | 3260 | 100 | 30 | – | Fc1ccc(-c2cncc3[nH]c(-c4n[nH]c5cnc(-c6cncc(CN7CCC(F)(F)C7)c6)cc45)cc23)cc1 | 78.4 |
| – | 18.9 | 10 | 52 | – | Cc1ccncc1-c1ccc2[nH]nc(-c3nc4c(-c5ccsc5)nccc4[nH]3)c2c1 | 156 |
| – | 11 | 10 | 75 | – | O=C(Nc1cncc(-c2cnc3[nH]nc(-c4nc5c(-c6cccc(F)c6)cncc5[nH]4)c3c2)c1)C1CC1 | 148 |
| – | 16.7 | 30 | 98 | – | CC(C)(C)C(=O)Nc1cncc(-c2ccc3[nH]nc(-c4nc5c(-c6ccc(F)s6)ccnc5[nH]4)c3c2)c1 | 120 |
| – | 3060 | 300 | 12 | – | CN(C)c1cncc(-c2cc3c(-c4cc5cnccc5[nH]4)n[nH]c3cn2)c1 | 101 |
| – | 36.4 | 100 | 4 | – | O=C(Nc1ccnc(C(F)(F)F)c1)c1n[nH]c2ccc(-c3cncc(CN4CCCCC4)c3)cc12 | 69 |
| – | 575 | 10 | 71 | – | CN(C)Cc1cncc(-c2ccc3[nH]nc(-c4cc5c(N6CCCCC6)cccc5[nH]4)c3c2)c1 | 205 |
| 0.02 | 80 | – | – | 57.3 | CC(C)N1CCC(c2nc(C(=O)Nc3cc4cc(-c5cnn(C)c5)ccc4cn3)co2)CC1 | – |
| > 10 | > 10000 | – | > 10000 | – | COc1cccc(-c2cncc3[nH]c(-c4n[nH]c5ccc(-c6cn[nH]c6)nc45)nc23)c1 | – |
| > 10 | > 10000 | – | > 10000 | – | O=C(Cc1ccccc1)Nc1cncc(-c2ccc3[nH]nc(-c4nc5c(-c6ccncc6)ccnc5[nH]4)c3n2)c1 | – |
| – | 59 | 300 | – | – | Cc1cncc(NC(=O)c2n[nH]c3ccc(-c4cncc(CN5CCCCC5)c4)cc23)c1 | 68.3 |
| – | > 10000 | 30 | 11 | – | O=C(Nc1cncc(-c2ccc3[nH]nc(-c4cc5c(-c6ccncc6)nccc5[nH]4)c3c2)c1)C1CCCC1 | 114 |
| – | 70 | 30 | 12 | – | CC(C)(C)C(=O)Nc1cncc(-c2cnc3[nH]nc(-c4nc5c(-c6ccoc6)cncc5[nH]4)c3c2)c1 | 144 |
| – | 43.5 | 30 | 44 | – | CC(C)Nc1cncc(-c2ccc3[nH]nc(-c4nc5c(-c6ccoc6)nccc5[nH]4)c3c2)c1 | 90.2 |
| – | 45 | 300 | 3 | – | FC1(F)CCN(Cc2cncc(-c3ccc4[nH]nc(-c5cc6cnccc6[nH]5)c4n3)c2)C1 | 134 |

| Structure (SMILES) | EC50 [1] [µM] | EC50 [2] [nM] | EC50 [3] [nM] | EC50 [4] [nM] | EC50 [6] [nM] | Emax at 0.3 µM [5] [%] |
| --- | --- | --- | --- | --- | --- | --- |
| CN1CC2CCC(C1)N2C(=O)Nc1cc2cc(-c3cnn(C)c3)ccc2cn1 | > 10 | > 10000 | – | – | – | – |
